Laboratory results reported in patent publication US20220096862A1, “METHOD FOR IRRADIATING CELLS WITH LIGHT, METHOD FOR CONTROLLING MEDICAL DEVICE, AND MEDICAL DEVICE” (OLYMPUS CORPORATION, priority 2019, published 2022).

Legend:
A431 tumor bearing mice [1] = assay: Percentage of attenuation of fluorescence versus cellular cytotoxicity after therapeutic light irradiation (PIT), FIG. 4; assay type: in vivo
Method: The total amount of irradiation is the same in both the case where irradiation is performed with the therapeutic light L with the light intensity of 50 mW/cm^2 or less and the case where irradiation is performed with the therapeutic light L with the light intensity of 100 mW/cm^2 or more. In other words, in the case where irradiation is performed with the therapeutic light L with the light intensity of 50 mW/cm^2 or less, a time period during which the cells C are irradiated is longer than a time period during which the cells C are irradiated with the therapeutic light L with the light intensity of 100 mW/cm^2 or more.
After the cells C are irradiated with the therapeutic light L, if the rate of reduction of fluorescence (the percentage of attenuation of fluorescence) and cellular cytotoxicity have a proportional relation, as shown by a dashed-and-dotted line A in FIG. 4, when the rate of reduction of fluorescence is 100%, cellular cytotoxicity is 100%. Therefore, it should be determined that all cells C disappear if fluorescence is no longer detected.
How ever, as the result of experiments performed by the applicant, the following is found. In actual experiments, as the result of observation that is performed after irradiation, by using the endoscope 1, for example, as the rate of reduction of fluorescence approaches 70% (or little more than 70%), cellular cytotoxicity approaches 100%.

A431 tumor bearing mice [2] = assay: Rates of damage of tumor tissues from pathological images after irradiation at different light intensities (PIT), FIG. 5; assay type: in vivo; conditions: 300 μg/mouse, irradiated one day after administration, total amount 100 J/cm^2, 25 mW/cm^2 or 50 mW/cm^2 compared with 100 mW/cm^2 or 300 mW/cm^2, tumors excised after one more day
Method: Pan-IR700, which is the photosensitizing agent 20, is administered to the A431 tumor bearing mice at 300 μg/mouse. One day after the administration of Pan-IR700, the cells C are irradiated with light of respective irradiation intensities shown in FIG. 5 up to the same total amount (100 J/cm^2). After one more day, tumor tissues are excised, and rates of damage of the tissues are calculated from pathological images of cross sections of the tumors.

Substance: Pan-IR700: phthalocyanine fluorescent dye (IRDye 700) attached to one antibody molecule (panitumumab, monoclonal antibody to Human EGFR)
- cellular cytotoxicity (A431 tumor bearing mice [1]; as the rate of reduction of fluorescence approaches 70% (or little more than 70%), after irradiation with therapeutic light L, FIG. 4): ~100%
- relationship of reduction of fluorescence and cellular cytotoxicity (A431 tumor bearing mice [1]; therapeutic light L with light intensity of 50 mW/cm^2 or less (solid line B, FIG. 4)): linear relationship
- rate of cellular cytotoxicity (A431 tumor bearing mice [1]; therapeutic light L with light intensity of 100 mW/cm^2 or more (solid line D, FIG. 4), reduction of fluorescence also found): low
- cellular cytotoxicity (rates of damage of the tissues) (A431 tumor bearing mice [2]): greater
